The test system of assay [1] is Nucleic Acid. In words: Binding affinity to calf thymus DNA assessed as high affinity binding constant in MES00 buffer at pH 6.3 by isothermal titration calorimetry. To be noted: Bos taurus. It counts as nucleic-acid assay.
For assay [2], the system named is Nucleic Acid. In words: Binding affinity to 20 mer AT-rich DNA in MES00 buffer at pH 6.3 by isothermal titration calorimetry. It counts as nucleic-acid assay. A general note: In ITC the heat of successive injections is recorded.
Assay [3] relates to Nucleic Acid. In words: Selectivity ratio of binding constant K for AT-rich DNA to binding constant K for GC-rich DNA. Type of assay: nucleic-acid assay.
Assay [4] deals with T1, DNA topoisomerase 1 (Homo sapiens) (UniProt P11387).
T1 sequence (whole entry): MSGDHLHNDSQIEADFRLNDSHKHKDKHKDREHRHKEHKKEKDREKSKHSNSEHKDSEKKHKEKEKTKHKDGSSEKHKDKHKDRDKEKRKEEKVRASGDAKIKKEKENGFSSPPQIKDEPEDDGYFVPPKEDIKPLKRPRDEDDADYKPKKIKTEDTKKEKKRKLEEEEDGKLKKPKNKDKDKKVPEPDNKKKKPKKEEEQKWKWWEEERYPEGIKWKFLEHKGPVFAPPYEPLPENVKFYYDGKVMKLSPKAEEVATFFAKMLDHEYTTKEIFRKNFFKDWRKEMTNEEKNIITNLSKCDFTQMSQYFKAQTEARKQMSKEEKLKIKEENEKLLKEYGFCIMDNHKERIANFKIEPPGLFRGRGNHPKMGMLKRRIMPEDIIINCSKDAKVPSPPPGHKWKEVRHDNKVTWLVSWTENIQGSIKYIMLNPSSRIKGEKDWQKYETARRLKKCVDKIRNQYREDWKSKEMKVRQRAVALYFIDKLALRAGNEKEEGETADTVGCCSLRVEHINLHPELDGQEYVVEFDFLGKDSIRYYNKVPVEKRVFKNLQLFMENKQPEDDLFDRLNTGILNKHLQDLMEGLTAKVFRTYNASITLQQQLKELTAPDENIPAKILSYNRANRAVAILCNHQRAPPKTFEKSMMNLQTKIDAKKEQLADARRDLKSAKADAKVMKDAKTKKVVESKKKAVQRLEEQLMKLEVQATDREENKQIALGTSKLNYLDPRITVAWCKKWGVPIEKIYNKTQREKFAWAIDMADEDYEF
In words: Inhibition of human topoisomerase 1 assessed as minimum concentration required for complete re-supercoiling of pUC19 DNA after 1 hr using ethidium bromide staining by agarose gel electrophoresis.

Assay [5] has as its system Nucleic Acid. In words: Binding affinity to calf thymus DNA assessed as low affinity binding constant in MES00 buffer at pH 6.3 by isothermal titration calorimetry. It counts as nucleic-acid assay. As to conditions: Bos taurus.
For assay [6], the system named is Nucleic Acid. In words: Binding affinity to 20 mer GC-rich DNA in MES00 buffer at pH 6.3 by isothermal titration calorimetry. Type of assay: nucleic-acid assay.
The test system of assay [7] is Nucleic Acid. Put plainly: Displacement of ethidium bromide from calf thymus DNA assessed as fluorescence intensity per microL of compound at 7 x 10^-5 M after 3 mins. Type of assay: nucleic-acid assay. To be noted: Bos taurus.
The test system of assay [8] is Nucleic Acid. Put plainly: Binding affinity to calf thymus DNA assessed in MES00 buffer at pH 6.3 by isothermal titration calorimetry. It counts as nucleic-acid assay. To be noted: Bos taurus.

Consider `CC[N+](C)(CC)CN1C(=O)c2ccc3c4c(ccc(c24)C1=O)C(=O)N(C[N+](C)(CC)CC)C3=O`, for which the K in the assay with Nucleic Acid [1] was determined as 31 ×10⁶ /M; in the assay with Nucleic Acid [2], 0.85 ×10⁶ /M; in the assay with Nucleic Acid [5], 3.6 ×10⁶ /M; in the assay with Nucleic Acid [6], 0.37 ×10⁶ /M. The Ratio in the assay on Nucleic Acid [3] is 2.3. Further, the Activity in assay [4] turned out to be 5.5 µM.

On to `CCCC[N+](C)(CCCC)CN1C(=O)c2ccc3c4c(ccc(c24)C1=O)C(=O)N(C[N+](C)(CCCC)CCCC)C3=O`, for which the K is 78 ×10⁶ /M in the assay with Nucleic Acid [1], 1.38 ×10⁶ /M in the assay with Nucleic Acid [2], 3.9 ×10⁶ /M in the assay on Nucleic Acid [5] and 0.38 ×10⁶ /M in the assay with Nucleic Acid [6]. Moreover, the Ratio in the assay with Nucleic Acid [3] stood at 3.6. Further, in the assay on Nucleic Acid [7], the Flu intensity was 358. Besides, the Activity in assay [4] was more than 6.7 µM.

Take `CCC[N+](C)(CCC)CN1C(=O)c2ccc3c4c(ccc(c24)C1=O)C(=O)N(C[N+](C)(CCC)CCC)C3=O`: the K in the assay with Nucleic Acid [1] stood at 43 ×10⁶ /M; in the assay with Nucleic Acid [2], 0.73 ×10⁶ /M; in the assay on Nucleic Acid [5], 3 ×10⁶ /M; in the assay on Nucleic Acid [6] it was 0.24 ×10⁶ /M. The Ratio in the assay with Nucleic Acid [3] was found to be 3. Also, in assay [4], the Activity stood at 6.7 µM.

Regarding `C[N+](C)(C)CN1C(=O)c2ccc3c4c(ccc(c24)C1=O)C(=O)N(C[N+](C)(C)C)C3=O`, the K in the assay on Nucleic Acid [8] stood at 15 ×10⁶ /M; with Nucleic Acid [2], 1.11 ×10⁶ /M; in the assay with Nucleic Acid [6] it was 1.17 ×10⁶ /M. In the assay with Nucleic Acid [7], the Flu intensity amounted to 400. Further, the Activity in assay [4] was 3.5 µM.

Source of the values: ChEMBL document CHEMBL1799992, “Substituent effect on the preferred DNA binding mode and affinity of a homologous series of naphthalene diimides” (Bioorg Med Chem Lett, 2011).
